Where “and” joins values, the source holds several entries; their conditions need not be identical. Identical values can stand only once.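 Protocol summary: plate cells (96-well), add compound at 5 concentrations, incubate 48 h, interpolate endpoints linearly. GI50 = concentration required for 50% inhibition of growth. Definition used: TGI = concentration required for complete inhibition of growth.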
What follows are compounds tested on MDA-MB-468 breast (assay: NCI-60 cell line screen, 48 h).
Work on `COc1ccc(OC)c(Nc2nc(-c3c(C)nc4sccn34)cs2)c1` yielded a GI50 of 1.7 µM and a TGI of 75.3 µM. With `Cc1nc(Nc2nc3ccccc3o2)nc(-c2cccc([N+](=O)[O-])c2)c1C(=O)Nc1ccc(F)c(Cl)c1` the GI50 was 1.28 µM and the TGI was 6.44 µM. Work on `C=C1c2c(Cl)ccc(O)c2C(O)=C2C(=O)[C@]3(O)C(O)=C(C(N)=O)C(=O)[C@@H](N(C)C)[C@@H]3[C@@H](O)[C@H]12` yielded a GI50 of 0.846 µM and a TGI of 2.56 µM. Work on `CCOC(=O)/C(C#N)=C/c1ccc2c(c1)CC1(C2)Cc2cc(CC)c(C(C)O)cc2C1` (centres undefined) yielded a GI50 of 12.4 µM and a TGI of 36.8 µM. `O=S(=O)(NCCNc1nccc(-c2c(-c3ccc(F)cc3)nc3sccn23)n1)c1ccccc1` was tested, and the GI50 was 4.34 µM and the TGI was greater than 100 µM. In the case of `O=C(Nc1ccc(I)cc1F)c1cc(Cl)ccc1O`, the GI50 is reported as 0.361 µM and the TGI is reported as 1.73 µM. `COc1cc(Cl)cc(-c2nn(-c3cccc(NC(=O)Nc4ccc(Cl)c(C(F)(F)F)c4)c3)cc2-c2ccncc2)c1` gave a GI50 of 0.99 µM and a TGI of 5.47 µM. With `OCCN1CCN(CC/C=C2\c3ccccc3Sc3ccc(Cl)cc32)CC1` the GI50 was 1.54 µM and 1.82 µM and the TGI was 3.18 µM and 4.05 µM. With `c1ccc(CNc2nc(Nc3ccccc3)nc3ccccc23)cc1` the GI50 was 1.09 µM and the TGI was 2.56 µM. In the case of `CN(C)CCN1C(=O)c2cccc3cccc(c23)C1=O`, the GI50 is reported as 10.3 µM and the TGI is reported as greater than 25 µM. `CCCNc1nc2ccccc2c2c1S(=O)(=O)c1ccc(Cl)cc1C2=O` showed a GI50 of 0.195 µM and a TGI of 1.47 µM. For `Cc1cccc2c(N)c3ccccc3nc12`, the GI50 was 1.44 µM and the TGI was 4.63 µM. Work on `COc1ccc(C2=CC(c3ccc(OC)c(OC)c3)c3c(c4ccccc4oc3=O)O2)cc1OC` (centres undefined) yielded a GI50 of 0.475 µM and a TGI of 8.3 µM. `CO[C@H]1CC(c2ccc[nH]2)=N[C@]12O[C@@H](C)C[C@@H]1CCCCCCCc3ccc([nH]3)[C@H]12` showed a GI50 of 0.444 µM and a TGI of 3.62 µM. With `O=C1NCCS(=O)(=O)/C1=C\C=C\c1cccc(C(F)(F)F)c1` the GI50 was 1.56 µM and the TGI was 4.53 µM. With `Cn1c(=O)c(Oc2ccc(F)cc2F)cc2cnc(NCCS(C)(=O)=O)nc21` the GI50 was greater than 25 µM and the TGI was greater than 25 µM. For `COc1ccc(-c2nn(-c3cccc(NC(=O)c4ccc(N5CCOCC5)c(C(F)(F)F)c4)c3)cc2-c2ccncc2)cc1Cl`, the GI50 was 6.88 µM and the TGI was greater than 50 µM. In the case of `Oc1ccc(Cl)cc1CNc1nc2ccccc2[nH]1`, the GI50 is reported as 5.72 µM and the TGI is reported as 21.9 µM. With `COc1cc(/C=N/NC(=O)c2cn(C3CC3)c3c(OC)c(N4CC5CCCNC5C4)c(F)cc3c2=O)ccc1O` (centres undefined) the GI50 was 1.63 µM and the TGI was 3.11 µM. With `CC(=O)Oc1ccc(C(c2ccc(OC(C)=O)cc2)c2ccccn2)cc1` the GI50 was 0.458 µM and 1.34 µM and the TGI was 25 µM and 45.2 µM. In the case of `CCN(CC)CCSCCCNc1c2ccc(Cl)cc2nc2ccc(OC)cc12`, the GI50 is reported as 1.5 µM and the TGI is reported as 3.05 µM. `C#Cc1nc(C2=C(C)C(OC(C)=O)/C(=N/OC(C)=O)C2)cs1` (centres undefined) was tested, and the GI50 was 2.07 µM and the TGI was 8.72 µM. `CC(C)COC(=O)c1ccc2[nH]c(O)c(C=Nc3ccc(S(N)(=O)=O)cc3)c2c1` gave a GI50 of 1.57 µM and a TGI of 4.36 µM. In the case of `CCN(CC)CCOc1ccc(C(=O)/C=C\c2ccc(Cl)cc2Cl)cc1`, the GI50 is reported as 5.05 µM and the TGI is reported as 19 µM. Compound `C/C=C(\C)C(=O)N[C@H]1C(O)C[C@]2(C)C3CC[C@@]4(C)C(CC[C@@H]4C(C)N(C)C)C3CCC2C1O` (some centres undefined) has a GI50 of 1.7 µM and a TGI of 4.54 µM. Compound `CC(C)CCN[C@@H]1CCc2cc(O)c(N3CC(=O)NS3(=O)=O)c(F)c2C1` has a GI50 greater than 100 µM and a TGI greater than 100 µM. For `CCn1c2ccccc2c2cc(C(O)c3cccc4ncccc34)ccc21` (centres undefined), the GI50 was 0.0326 µM and the TGI was 0.849 µM. With `Cn1cnc([N+](=O)[O-])c1Sc1ncn[nH]1` the GI50 was 21 µM and the TGI was greater than 100 µM. `CCO/C=N/C1=C(C#N)C(c2ccc(OC)cc2)c2sc3c(C)cccc3c2O1` (centres undefined) gave a GI50 of 0.276 µM and a TGI of 5.69 µM. In the case of `COc1ccc(Nc2cc(C)nc(N3CCN(c4ccnc5cc(Cl)ccc45)CC3)n2)cc1`, the GI50 is reported as 1.77 µM and the TGI is reported as 5.57 µM. `COc1ccc2nc(NC(=O)c3cccnc3Nc3cc(OC)c(OC)c(OC)c3)sc2c1` gave a GI50 of 17.8 µM and a TGI of 62.7 µM. Compound `COc1cc(/C=C/C(=O)c2cccnc2Nc2ccc(F)cc2)cc(OC)c1OC` has a GI50 of 1.77 µM and a TGI of 5.67 µM.

From PubChem BioAssay (NCI)
